The text below walks through data of patent US5766848A (Synaptic Pharmaceutical Corporation, priority 1994, dated 1998).

The target of one data set is T1, human GAT-3 (Homo sapiens, UniProt P48066).
T1 construct: expressed in transfected cells
T1 sequence (P48066 1-632): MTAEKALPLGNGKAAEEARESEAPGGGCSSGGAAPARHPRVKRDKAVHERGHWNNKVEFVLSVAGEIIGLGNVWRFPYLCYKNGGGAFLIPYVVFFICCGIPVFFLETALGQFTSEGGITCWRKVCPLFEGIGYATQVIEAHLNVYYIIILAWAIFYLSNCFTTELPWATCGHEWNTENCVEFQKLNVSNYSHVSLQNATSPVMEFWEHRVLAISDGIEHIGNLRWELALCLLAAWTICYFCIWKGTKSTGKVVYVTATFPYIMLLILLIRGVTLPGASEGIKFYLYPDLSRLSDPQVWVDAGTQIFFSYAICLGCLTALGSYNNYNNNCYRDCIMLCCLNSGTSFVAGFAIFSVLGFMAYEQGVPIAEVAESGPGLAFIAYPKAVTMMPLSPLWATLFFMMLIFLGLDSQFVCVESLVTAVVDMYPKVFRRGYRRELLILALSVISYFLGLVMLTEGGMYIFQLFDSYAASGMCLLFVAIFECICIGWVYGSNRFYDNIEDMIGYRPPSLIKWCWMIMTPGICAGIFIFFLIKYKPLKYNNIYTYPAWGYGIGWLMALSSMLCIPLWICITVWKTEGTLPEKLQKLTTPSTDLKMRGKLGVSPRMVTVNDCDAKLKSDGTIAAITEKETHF
Briefly: Inhibition of [3H]GABA uptake, human GAT-3 stable LM(tk-) cell line. The data set is classed as cell-based. Conditions: read-out: IC50, human GAT-3, inhibition of [3H]GABA uptake, Table 9, means ± S.E.M.

For data set [1] the following is noted: human volunteers (CI-966); clinical reports (Tiagabine); cited from earlier work.
The next data set deals with human GAT-1 (Homo sapiens, UniProt P30531). Conditions: read-out: IC50, human GAT-1, inhibition of [3H]GABA uptake.
A further data set addresses T2, human BGT-1 (Homo sapiens, UniProt P48065).
T2 sequence (P48065 1-614 C10Y): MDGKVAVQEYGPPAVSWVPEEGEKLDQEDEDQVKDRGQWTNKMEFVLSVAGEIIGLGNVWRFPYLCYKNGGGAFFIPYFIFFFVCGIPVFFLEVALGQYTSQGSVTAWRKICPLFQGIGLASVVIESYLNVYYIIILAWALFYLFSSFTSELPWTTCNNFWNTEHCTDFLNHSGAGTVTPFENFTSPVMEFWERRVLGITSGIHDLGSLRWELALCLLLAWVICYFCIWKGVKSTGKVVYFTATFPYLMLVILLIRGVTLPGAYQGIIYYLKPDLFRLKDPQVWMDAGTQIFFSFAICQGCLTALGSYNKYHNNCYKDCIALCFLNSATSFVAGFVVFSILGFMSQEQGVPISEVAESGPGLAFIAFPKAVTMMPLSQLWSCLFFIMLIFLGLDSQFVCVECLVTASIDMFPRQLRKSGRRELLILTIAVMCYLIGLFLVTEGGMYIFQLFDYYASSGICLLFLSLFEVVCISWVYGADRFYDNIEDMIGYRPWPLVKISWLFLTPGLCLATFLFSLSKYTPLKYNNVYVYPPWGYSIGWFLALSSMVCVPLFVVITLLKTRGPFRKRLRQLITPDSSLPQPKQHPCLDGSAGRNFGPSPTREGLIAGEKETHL
Conditions: read-out: IC50, human BGT-1, inhibition of [3H]GABA uptake; Table 9; stable LM(tk-) cell line; means ± S.E.M.

For data set [2] the following is noted: literature reports; cited from earlier work.
In a further data set the target is T3, rat GAT-2 (Rattus norvegicus, UniProt P31646).
T3 construct: expressed in transfected cells
T3 sequence (P31646 1-602): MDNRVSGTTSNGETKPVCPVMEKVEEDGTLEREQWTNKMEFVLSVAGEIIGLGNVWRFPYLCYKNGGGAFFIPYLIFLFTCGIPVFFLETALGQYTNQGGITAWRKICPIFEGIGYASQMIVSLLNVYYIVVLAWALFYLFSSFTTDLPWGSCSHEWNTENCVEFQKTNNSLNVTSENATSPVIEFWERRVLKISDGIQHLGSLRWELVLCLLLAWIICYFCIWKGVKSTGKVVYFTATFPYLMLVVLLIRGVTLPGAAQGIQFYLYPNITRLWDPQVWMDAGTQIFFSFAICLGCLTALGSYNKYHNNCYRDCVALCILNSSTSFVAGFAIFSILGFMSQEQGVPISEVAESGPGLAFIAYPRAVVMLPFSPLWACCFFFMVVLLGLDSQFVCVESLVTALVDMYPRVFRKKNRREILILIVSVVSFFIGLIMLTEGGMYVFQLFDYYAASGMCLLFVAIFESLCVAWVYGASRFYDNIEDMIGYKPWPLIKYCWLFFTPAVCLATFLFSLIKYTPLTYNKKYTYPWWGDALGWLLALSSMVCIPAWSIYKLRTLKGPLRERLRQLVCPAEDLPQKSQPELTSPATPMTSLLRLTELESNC
The experiment in a line: Inhibition of [3H]GABA uptake, rat GAT-2 stable LM(tk-) cell line. The data set is classed as cell-based. Conditions: read-out: IC50, rat GAT-2, inhibition of [3H]GABA uptake, Table 9, means ± S.E.M.

The conditions of data set [3]: Phase II clinical trials; cited from earlier work.

Chain of human GAT-1 (P30531 whole entry): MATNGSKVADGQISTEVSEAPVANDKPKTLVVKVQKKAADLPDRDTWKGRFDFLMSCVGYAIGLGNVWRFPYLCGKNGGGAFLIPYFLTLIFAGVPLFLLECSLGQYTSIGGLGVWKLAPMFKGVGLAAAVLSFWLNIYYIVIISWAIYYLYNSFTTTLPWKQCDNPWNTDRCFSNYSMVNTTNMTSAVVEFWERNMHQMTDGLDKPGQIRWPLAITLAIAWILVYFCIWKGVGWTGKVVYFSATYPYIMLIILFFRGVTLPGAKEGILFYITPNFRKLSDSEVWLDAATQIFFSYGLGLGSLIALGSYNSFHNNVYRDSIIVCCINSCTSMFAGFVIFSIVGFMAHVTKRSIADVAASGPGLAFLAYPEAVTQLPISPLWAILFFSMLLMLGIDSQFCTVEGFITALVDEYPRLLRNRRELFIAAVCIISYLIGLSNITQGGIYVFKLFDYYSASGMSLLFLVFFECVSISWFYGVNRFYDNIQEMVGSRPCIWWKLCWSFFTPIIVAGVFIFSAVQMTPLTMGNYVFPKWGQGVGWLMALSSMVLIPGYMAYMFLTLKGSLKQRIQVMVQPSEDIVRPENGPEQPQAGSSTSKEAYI
Method for human BGT-1: Cells were grown under standard conditions (37° C., 5% CO2) in Dulbecco's modified Eagles's medium (GIBCO, Grand Island, N.Y.).
After 10 minutes the medium was removed and unlabeled drugs in HBS were added (450 μl/well). […] Plates were incubated at 37° C. for 10 minutes, then washed rapidly 3× with ice-cold HBS, using a 24-position plate washer (Brandel, Gaithersburg, Mass.; model PW-12). Cells were solubilized with 0.05% sodium deoxycholate/0.1N NaOH (0.25 ml/well), an aliquot neutralized with 1N HCl, and radioactivity was determined by scintillation counting. Protein was quantified in an aliquot of the solubilized cells using a BIO-RAD protein assay kit, according to the manufacturer's directions.
Data Analysis: Competition curves were conducted in duplicate, using 10 concentrations of unlabeled drug. […] All data throughout the paper represent means±SEM.
(§1) Cells were grown under standard conditions (37° C., 5% CO2) in DMEM (Dulbecco's modified Eagles's medium; GIBCO, Grand Island, N.Y.).
(§2) Cells grown in 24-well plates were washed 3× with HEPES-buffered saline (HBS, in mM: NaCl, 150; HEPES, 20; CaCl2, 1; glucose, 10; KCl, 5; MgCl2 1; pH 7.4) and allowed to equilibrate on a 37° C. slide warmer. After 10 minutes the medium was removed and unlabeled drugs in HBS were added (450 μl/well). […] Plates were incubated at 37° C. for 10 minutes, then washed rapidly 3× with ice-cold HBS, using a 24-position plate washer (Brandel, Gaithersburg, Mass.; model PW-12). Cells were solubilized with 0.05% sodium deoxycholate/0.1N NaOH (0.25 ml/well), an aliquot neutralized with 1N HCl, and radioactivity was determined by scintillation counting. Protein was quantified in an aliquot of the solubilized cells using a BIO-RAD protein assay kit, according to the manufacturer's directions.
(§3) Competition curves were conducted in duplicate, using 10 concentrations of unlabeled drug. […] All data throughout the paper represent means±S.E.M.
Method for human GAT-1: as §1, §2, §3
Method for human GAT-3: as §1, §2, §3
Method for rat GAT-2: as §1, §2, §3

Take `O=C(O)C1=CCCN(CCOC(c2ccc(C(F)(F)F)cc2)c2ccc(C(F)(F)F)cc2)C1` [CI-966, [1-[2-[bis4(trifluoromethyl)phenyl]methoxy]ethyl]-1,2,5,6-tetrahydro-3-pyridinecarboxylic acid]: the IC50 is 333 ± 76 µM on human GAT-3, 0.26 ± 0.05 µM at human GAT-1 and 300 ± 10 µM at human BGT-1. In addition, in data set [1], the “severe adverse effects in humans” value is reported as “Severe adverse effects were noted”. Also, in data set [2], the “anticonvulsive activity in animals” value was “display anticonvulsive activity”.

As to `Cc1ccsc1C(=CCCN1CCC[C@@H](C(=O)O)C1)c1sccc1C` [Tiagabine, (R)-1-[4,4-Bis(3-methyl-2-thienyl)-3-butenyl]-3-piperidencarboxylic acid], the values for the IC50 at human GAT-3, at rat GAT-2 and on human BGT-1 were 917 ± 193 µM, 1410 ± 250 µM and 1670 ± 722 µM, respectively. Further, the “anticonvulsive activity in animals” value in data set [2] was “display anticonvulsive activity”. In addition, the “anti-seizure activity in patients” value in data set [3] is listed as “demonstrated anti-seizure activity”.
